IC50 data for five compounds are collected here from ChEMBL document CHEMBL2062361, “Synthesis and antiproliferative evaluation of some new amidino-substituted bis-benzothiazolyl-pyridines and pyrazine” (Eur J Med Chem, 2012).

pIC50: −log10 of the molar value.

The subject of experiment [1] is SK-BR-3. Nature of the experiment: Antiproliferative activity against human SK-BR-3 cells after 72 hrs by MTT assay. Type of experiment: functional, cell-based. As to conditions: SK-BR-3, 72 h. (Tetrazolium assays rely on reduction of a dye to a coloured formazan, in cell work by metabolically active cells.)
Experiment [2] relates to BJ. The experiment is described as follows: Antiproliferative activity against human BJ cells after 72 hrs by MTT assay. Type of experiment: cell-based.
Experiment [3] deals with MCF7. The experiment is described as follows: Antiproliferative activity against human MCF7 cells after 72 hrs by MTT assay. Type of experiment: functional, cell-based. To be noted: MCF7, 72 h.
Experiment [4] deals with MIA PaCa-2. The experiment is described as follows: Antiproliferative activity against human MIAPaCa2 cells after 72 hrs by MTT assay. Format: functional, cell-based. As to conditions: MIA PaCa-2, 72 h.
The test system of experiment [5] is HeLa. The experiment is described as follows: Antiproliferative activity against human HeLa cells after 72 hrs by MTT assay. Type of experiment: functional, cell-based.
Experiment [6] deals with SW-620. The experiment is described as follows: Antiproliferative activity against human SW620 cells after 72 hrs by MTT assay. Type of experiment: functional, cell-based. To be noted: SW-620, 72 h.

`c1cc2nc(-c3ccc(-c4nc5ccc(C6=NCCN6)cc5s4)nc3)sc2cc1C1=NCCN1`: the pIC50 in experiment [1] is 5.47; in experiment [2], 6.47; in experiment [3], 5.36; in experiment [4] it was 5.36; in experiment [5], 5.47; in experiment [6], 5.55.
`N=C(N)c1ccc2nc(-c3cncc(-c4nc5ccc(C(=N)N)cc5s4)c3)sc2c1`: the negative logarithm of the IC50 (pIC50) is less than 4.00 in experiment [1]; 4.82 in experiment [2]; less than 4.00 in experiment [3]; 4.06 in experiment [4]; less than 4.00 in experiment [5]; less than 4.00 in experiment [6].
On to `c1cc2nc(-c3cnc(-c4nc5ccc(C6=NCCN6)cc5s4)cn3)sc2cc1C1=NCCN1`, for which the pIC50 was 6.05 in experiment [1]; 7.15 in experiment [2]; 5.92 in experiment [3]; 5.29 in experiment [4]; 5.72 in experiment [5]; 5.74 in experiment [6].
In the case of `N=C(N)c1ccc2nc(-c3ccnc(-c4nc5ccc(C(=N)N)cc5s4)c3)sc2c1`, the negative logarithm of the IC50 (pIC50) was less than 4.00 in experiment [1]; 5.53 in experiment [2]; 4.10 in experiment [3]; 4.21 in experiment [4]; less than 4.00 in experiment [5]; less than 4.00 in experiment [6].
On to `c1cc2nc(-c3cncc(-c4nc5ccc(C6=NCCN6)cc5s4)c3)sc2cc1C1=NCCN1`, for which the pIC50 in experiment [1] is 6.30; in experiment [2] it was 6.80; in experiment [3], 6.05; in experiment [4], 5.18; in experiment [5] it was 6.52; in experiment [6], 6.38.

By pIC50 is commonly meant −log10 of the IC50, conventionally taken in molar units. The low end stands for a large IC50, the high end for a small IC50.
